Read-outs that look alike come from different tables or passages of the source.
Target: recombinant PIM-1 (Homo sapiens, UniProt P11309)
Experiment: PIM-1 kinase assay (radiometric, 15 uM ATP, DMSO 4%)
Format: biochemical
Experimental: The following procedure was used to assay the PIM-1 kinase activity of compounds of the invention. Other methods for assaying PIM-1 and other PIM kinases, as well as methods to assay for activity against the various kinases in FIG. 1, are known in the art.
(specific activity approx. 500 cpm/pmol), DMSO 4% and test inhibitor compound at the required concentration. The reaction was initiated by the addition of the Magnesium ATP mixture. After 40 min incubation at 23° C., the reactions were quenched by the addition of 100 ul 0.75% Phosphoric acid, and the labeled peptide collected by filtration through a phosphocellulose filter plate. The plate was washed 4 times with 0.075% phosphoric acid (100 ul per well) and then, after the addition of scintillation fluid (20 ul per well), the counts were measured by a scintillation counter.

[1] = Table 1, % inhibition at the high dose (2 micromolar) in a single screening assay, 15 μM ATP
[2] = Table 1, given for compounds with IC50 at or below 2 micromolar, 15 uM ATP, read-out: PIM-1 IC50

recombinant PIM-1, sequence (P11309 whole entry): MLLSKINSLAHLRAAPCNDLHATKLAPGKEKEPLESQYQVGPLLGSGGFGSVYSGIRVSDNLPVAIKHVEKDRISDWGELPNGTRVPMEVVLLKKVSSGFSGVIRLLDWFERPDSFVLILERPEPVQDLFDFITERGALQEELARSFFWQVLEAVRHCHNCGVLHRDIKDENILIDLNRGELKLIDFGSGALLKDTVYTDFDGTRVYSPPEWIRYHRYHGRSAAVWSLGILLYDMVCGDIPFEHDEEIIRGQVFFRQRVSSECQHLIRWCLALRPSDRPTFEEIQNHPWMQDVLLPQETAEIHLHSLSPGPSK

Structure (SMILES)	inhibition at 2 µM [1] [%]	further results
COC(=O)c1ccccc1-c1ccc(/C=C2/C(=O)Nc3ccc(F)cc32)o1 [Compound 30]	-6.8	
Cc1cnc(CNC(=O)c2cccc(-c3ccc(/C=C4/C(=O)Nc5ccc(F)cc54)o3)c2)cn1 [Compound 18]	42.3	
O=C1Nc2ccccc2/C1=C\c1ccc(-c2ccccc2C(=O)NCCN2CCCC2)o1 [Compound 54]	3.52	
CCN(CC)CCNC(=O)c1cccc(-c2ccc(/C=C3/C(=O)Nc4ccccc43)o2)c1 [Compound 4]		IC50 [2]: < 1000 nM
Cn1cncc1CNC(=O)c1cccc(-c2ccc(/C=C3/C(=O)Nc4ccc(F)cc43)o2)c1 [Compound 22]		IC50 [2]: < 1000 nM
O=C1Nc2ccc(Cl)cc2/C1=C\c1ccc(-c2cccc(C(=O)N3CCCC(O)C3)c2)o1 (centres unmarked) [Compound 178]	-19.4	
CN(C)C1CCN(C(=O)c2cc(-c3ccc(/C=C4/C(=O)Nc5ccc(F)cc54)o3)ccc2Cl)CC1 [Compound 75]	27.8	
Cn1cncc1CNC(=O)c1ccccc1-c1ccc(/C=C2/C(=O)Nc3ccc(F)cc32)o1 [Compound 65]	-2.39	
CN(C)C1CCN(C(=O)c2ccc(-c3ccc(/C=C4/C(=O)Nc5ccccc54)o3)cc2)CC1 [Compound 38]		IC50 [2]: < 2000 nM
O=C1Nc2ccc(C(=O)NC3CC3)cc2/C1=C\c1ccc(-c2cccc(C(=O)NCCN3CCCC3)c2)o1 [Compound 9]	37.2	
CN1CCN(C(=O)c2cc(-c3ccc(/C=C4/C(=O)Nc5ccccc54)o3)ccc2Cl)CC1 [Compound 26]	-18.8	
CN1CCCCC1CNC(=O)c1ccc(-c2ccc(/C=C3/C(=O)Nc4ccc(F)cc43)o2)cc1 (centres unmarked) [Compound 86]	90.6	IC50 [2]: < 1000 nM
CN1CCCCC1CNC(=O)c1ccccc1-c1ccc(/C=C2/C(=O)Nc3ccccc32)o1 (centres unmarked) [Compound 60]	0.33	
CN(CCN1CCCC1)C(=O)c1ccc(-c2ccc(/C=C3/C(=O)Nc4ccccc43)o2)cc1 [Compound 34]		IC50 [2]: < 1000 nM
NC(=O)c1cccc(-c2ccc(/C=C3/C(=O)Nc4ccccc43)o2)c1 [Compound 166]		IC50 [2]: < 1000 nM
O=C1Nc2ccc(Cl)cc2/C1=C\c1ccc(-c2ccc(Cl)c(C(=O)NCCN3CCCC3)c2)o1 [Compound 106]	22.2	
CN(C)C(=O)c1cccc(-c2ccc(/C=C3/C(=O)Nc4ccc(Cl)cc43)o2)c1 [Compound 175]	21.2	
CN1CCC(N(C)C(=O)c2ccc(-c3ccc(/C=C4/C(=O)Nc5ccccc54)o3)cn2)C1 (centres unmarked) [Compound 131]	5.08	
CN1CCCCC1CNC(=O)c1cc(-c2ccc(/C=C3/C(=O)Nc4ccc(F)cc43)o2)ccc1Cl (centres unmarked) [Compound 76]	15.7	
CCN1CCCC1CNC(=O)c1cccc(-c2ccc(/C=C3/C(=O)Nc4ccccc43)o2)c1 (centres unmarked) [Compound 57]	10.6	
CN1CCCC(NC(=O)c2cccc(-c3ccc(/C=C4/C(=O)Nc5ccc(Cl)cc54)o3)c2)C1 (centres unmarked) [Compound 111]	42.6	
O=C1Nc2ccc(F)cc2/C1=C\c1ccc(-c2cc(C(=O)NCCN3CCCC3)ccc2Cl)o1 [Compound 13]		IC50 [2]: < 2000 nM
O=C1Nc2ccc(F)cc2/C1=C\c1ccc(-c2ccc(Cl)c(C(=O)NCCN3CCCC3)c2)o1 [Compound 12]		PIM-1 Inhibition @ 15 μM ATP [1]: 35.20%

Structure (SMILES)	inhibition at 2 µM [1] [%]	further results
O=C1Nc2ccc(C(=O)NCc3ccccc3)cc2/C1=C\c1ccc(-c2cccc(C(=O)NCCN3CCCC3)c2)o1 [Compound 8]	11.5	
O=C1Nc2ccccc2/C1=C\c1ccc(-c2ccc(C(=O)NCCN3CCCC3)c(F)c2)o1 [Compound 159]	11.3	
CN1CCC(N(C)C(=O)c2ccccc2-c2ccc(/C=C3/C(=O)Nc4ccccc43)o2)C1 (centres unmarked) [Compound 58]	7.15	
O=C1Nc2ccc(F)cc2/C1=C\c1ccc(-c2ccc(C(=O)NCCN3CCCC3)cc2)o1 [Compound 81]	94.8	IC50 [2]: < 1000 nM
O=C(CN1CCCC1)Nc1cccc(-c2ccc(/C=C3/C(=O)Nc4ccccc43)o2)c1 [Compound 186]		IC50 [2]: < 1000 nM
CN1CCCCC1CNC(=O)c1ccc(-c2ccc(/C=C3/C(=O)Nc4ccccc43)o2)cn1 (centres unmarked) [Compound 133]	7.61	
CCN1CCCC1CNC(=O)c1ccc(-c2ccc(/C=C3/C(=O)Nc4ccccc43)o2)cn1 (centres unmarked) [Compound 130]	24.3	
COCCNC(=O)c1ccc2c(c1)/C(=C\c1ccc(-c3cccc(C(=O)NCCN4CCCC4)c3)o1)C(=O)N2 [Compound 7]	32.7	
Cc1cnc(CNC(=O)c2ccc(-c3ccc(/C=C4/C(=O)Nc5ccc(Cl)cc54)o3)cc2)cn1 [Compound 140]		IC50 [2]: < 1000 nM
CN(C)CCCOc1ccc(-c2ccc(/C=C3/C(=O)Nc4ccccc43)o2)cn1 [Compound 125]	41.5	
O=C1Nc2cc(C(F)(F)F)ccc2/C1=C\c1ccc(-c2cccc(C(=O)NCCN3CCCC3)c2)o1 [Compound 49]	2.7	
CN(C)C1CCN(C(=O)c2ccccc2-c2ccc(/C=C3/C(=O)Nc4ccc(F)cc43)o2)CC1 [Compound 67]	8.84	
CN(C)C1CCN(C(=O)c2cccc(-c3coc(/C=C4/C(=O)Nc5ccc(F)cc54)c3)c2)CC1 [Compound 96]	10.8	
Nc1cc(C(=O)NCCN2CCCC2)ccc1-c1ccc(/C=C2/C(=O)Nc3ccccc32)o1 [Compound 144]		IC50 [2]: < 1000 nM
CN1CCC(NC(=O)c2cc(-c3ccc(/C=C4/C(=O)Nc5ccccc54)o3)ccc2Cl)CC1 [Compound 27]	-16.9	
O=C1Nc2ccc(F)cc2/C1=C\c1ccc(-c2cccc(C(=O)N3CCOCC3)c2)o1 [Compound 19]	42.2	
CN1CCCC(NC(=O)c2ccccc2-c2ccc(/C=C3/C(=O)Nc4ccccc43)o2)C1 (centres unmarked) [Compound 56]	13.8	
CN1CCN(c2ccc(-c3ccc(/C=C4/C(=O)Nc5ccccc54)o3)cn2)CC1 [Compound 126]	19.5	
O=C1Nc2ccc(Cl)cc2/C1=C\c1ccc(-c2cncc(C(=O)NCCN3CCCC3)c2)o1 [Compound 147]		IC50 [2]: < 1000 nM
O=C1Nc2c(F)cccc2/C1=C\c1ccc(-c2ccc(Cl)c(C(=O)NCCN3CCCC3)c2)o1 [Compound 104]	-5.3	
CN1CCCC(NC(=O)c2cc(-c3ccc(/C=C4/C(=O)Nc5ccc(F)cc54)o3)ccc2Cl)C1 (centres unmarked) [Compound 70]	27.6	
CN1CCCCC1CNC(=O)c1cccc(-c2ccc(/C=C3/C(=O)Nc4c(Cl)cccc43)o2)c1 (centres unmarked) [Compound 42]	9.73	
O=C1Nc2c(Cl)cccc2/C1=C\c1ccc(-c2ccc(Cl)c(C(=O)NCCN3CCCC3)c2)o1 [Compound 105]	-16.7	

Structure (SMILES)	inhibition at 2 µM [1] [%]	further results
CN(C)CCNC(=O)c1cc(-c2ccc(/C=C3/C(=O)Nc4ccccc43)o2)ccc1Cl [Compound 24]	36.7	
Cn1cncc1CNC(=O)c1cccc(-c2coc(/C=C3/C(=O)Nc4ccc(F)cc43)c2)c1 [Compound 92]	12.7	
O=C1Nc2ccccc2/C1=C\c1ccc(-c2ccc(C(=O)NCc3ccncc3)nc2)o1 [Compound 135]	43.6	
CN1CC(NC(=O)c2cc(-c3ccc(/C=C4/C(=O)Nc5ccccc54)o3)ccc2Cl)C1 [Compound 25]	-15.8	
O=C1Nc2ccc(Cl)cc2/C1=C\c1ccc(-c2cccc(C(=O)NCc3ccncc3)c2)o1 [Compound 108]		IC50 [2]: < 1000 nM
CCN1CCCC1CNC(=O)c1cccc(-c2ccc(/C=C3/C(=O)Nc4ccc(Cl)cc43)o2)c1 (centres unmarked) [Compound 112]		IC50 [2]: < 1000 nM
CN1CCCN(C(=O)c2ccc(-c3ccc(/C=C4/C(=O)Nc5ccc(Cl)cc54)o3)cc2)CC1 [Compound 196]		IC50 [2]: < 1000 nM
CN1CCN(c2ccc(-c3ccc(/C=C4\C(=O)Nc5ccc(Cl)cc54)o3)cn2)CC1		IC50 (Table 3, DMSO 4%, read-out: PIM1: IC50 (DMSO 4%)): < 1000 nM
O=C1Nc2ccccc2/C1=C\c1ccc(-c2ccc(C(=O)NCCN3CCCC3)nc2)o1 [Compound 128]	27.2	
CN1CCCN(C(=O)c2ccc(-c3ccc(/C=C4/C(=O)Nc5ccccc54)o3)cn2)CC1 [Compound 137]	20.6	
CN1CCCCC1CNC(=O)c1cccc(-c2ccc(/C=C3/C(=O)Nc4ccc(C(F)(F)F)cc43)o2)c1 (centres unmarked) [Compound 48]	-4.56	
Cn1cncc1CNC(=O)c1ccc(-c2ccc(/C=C3/C(=O)Nc4ccccc43)o2)cn1 [Compound 132]		IC50 [2]: < 1000 nM
Cn1cncc1CNC(=O)c1ccccc1-c1ccc(/C=C2/C(=O)Nc3ccccc32)o1 [Compound 59]	-4.35	
O=C1Nc2ccc(F)cc2/C1=C\c1ccc(-c2ccc(Cl)c(C(=O)N3CCCCC3)c2)o1 [Compound 77]	-17	
CN1CCCC(NC(=O)c2ccc(-c3ccc(/C=C4/C(=O)Nc5ccc(F)cc54)o3)cc2)C1 (centres unmarked) [Compound 85]	84.5	IC50 [2]: < 2000 nM
CN1CCN(C(=O)c2ccc(-c3ccc(/C=C4/C(=O)Nc5ccccc54)o3)cn2)CC1 [Compound 136]	15.2	
Cn1ccnc1CNC(=O)c1cccc(-c2ccc(/C=C3/C(=O)Nc4ccc(Cl)cc43)o2)c1 [Compound 119]	37	
Cc1cc(NCCN2CCCC2)c2cccc(-c3ccc(/C=C4/C(=O)Nc5ccc(Cl)cc54)o3)c2n1 [Compound 139]	-23.4	
COC(=O)c1ccc2c(c1)/C(=C\c1ccc(-c3cccc(C(=O)NCCN4CCCC4)c3)o1)C(=O)N2 [Compound 5]		IC50 [2]: < 1000 nM
Nc1cccc(-c2ccc(/C=C3/C(=O)Nc4ccccc43)o2)c1 [Compound 183]		IC50 [2]: < 2000 nM
CC(C)(C)OC(=O)Nc1cccc(-c2ccc(/C=C3/C(=O)Nc4ccccc43)o2)c1 [Compound 181]	14.5	
O=C1Nc2ccccc2/C1=C\c1ccc(-c2ccc(C(=O)NCCN3CCCC3)c(O)c2)o1 [Compound 182]		IC50 [2]: < 2000 nM
